Measurements published in article PMC8599855, “Detection of cancer stem cells by EMT-specific biomarker-based peptide ligands” (Scientific Reports, 2021).

Columns and labels:
[1] = UNC0642 5 mg/kg body weight, UBC xenograft model, any time point post-treatment; cited from earlier work
Source text: In the current study, we successfully established a protocol for EMT induction via the combination of the G9a inhibitor and low-dose IR. G9a, mainly catalyzes histone H3K9 methylation, is shown to be overexpressed in many types of cancers, including gastric cancer, ovarian cancer, head and neck cancer, etc. Higher G9a expression levels represent higher methylation levels, thus leading to the transcriptional repression of tumor-suppressor genes and are also associated with poor prognosis in patients. Liu et al. explored that snail-induced EMT and repression of E-cadherin in head and neck sq ...

[2] = Body weight of xenograft mice; type: in vivo, mouse
Protocol: (§1) All animal procedures were performed in accordance with the Guide for Care and Use of Laboratory Animals and National Yang-Ming University’s IACUC number was 1080110. Immunodeficient male mice (BALB/cAnNCrj-nu/nu, six weeks old, 20 gm) were provided by National Laboratory Animal Center (NLAC), NARLabs, Taiwan. Mice were group-housed (6 animals per cage) in individually ventilated cages (IVC) systems and had unlimited access to food and water. […] For establishment of xenografts, 2 × 10^6 SAS-EGFP-Fluc cells in 100 μL phosphate-buffered saline (PBS) were injected subcutaneously into the animal's right shoulder and 2 × 10^6 SAS-wt cells were injected into the left leg. Growth of the implanted tumors was monitored twice a week and tumor volumes were estimated from caliper measurements according to the following formula: tumor volume = (lengthÍwidth^2) Í0.523. When tumor size reached approximately 10 mm^3, the mice were randomized into four groups of five animals per group for the following treatments: (1) DMSO (1 ml/kg body weight), (2) Unc0642 (2.5 mg/kg body weight), (3) 2 Gy of radiation, (4) Unc0642 (2.5 mg/kg body weight) and 2 Gy of radiation. Mice were given Unc0642 (cat. SML1037, Sigma-Aldrich, St. Louis, MO) intraperitoneally (i.p) every two days for 3 times. […]

SAS-EGFP-Fluc tumor = test: SAS xenograft mouse model: tumor burden by bioluminescence, CD44 in excised tumors; type: in vivo
Protocol: Frozen tissues sections or cell culture slides were fixed in 4% paraformaldehyde, washed with PBS and permeated with 0.1% Triton X-100 for 5 min before blocking with 20% FBS for 10 min at 37 °C, followed by the incubation with anti-vimentin antibody (cat. MAB3400, Millipore, Bedford, MA, USA) at 4 °C overnight. Sections were washed three times in PBS, each wash lasting 5 min then stained with Cy5-conjugated goat anti- mouse IgG (1:1000, cat. ab6563, Abcam, Cambridge, UK) for 1 h in the dark. All slides were mounted with VECTASHIELD Mounting Medium with DAPI (cat. H-1200, Vector Labs, Burligame, CA, USA) and covered with cover glasses before visualization under a laser-scanning confocal microscope (Zeiss LSM 880, Jena, Germany) with Zen Blue software (ZEISS, Jena, Germany).
as §1, with “Í0.523.” for “Í0.523. When tumor size reached approximately 10 mm^3, the mice were randomized into four groups of five animals per group for the following treatments: (1) DMSO (1 ml/kg body weight), (2) Unc0642 (2.5 mg/kg body weight), (3) 2 Gy of radiation, (4) Unc0642 (2.5 mg/kg body weight) and 2 Gy of radiation. Mice were given Unc0642 (cat. SML1037, Sigma-Aldrich, St. Louis, MO) intraperitoneally (i.p) every two days for 3 times.”
Tumor-bearing mice were anaesthetized with 2% isoflurane and then injected D-luciferin (150 mg/kg body weight diluted in PBS) into the mouse peritoneum. […] The luminescent intensity at tumor sites was analyzed using living image software 3.2 (IVIS 50 Imaging System, Perkin Elmer, Waltham, MA, USA). Bioluminescent signal was recorded as mean photons/s/centimeter^2/steradian (photon/s/cm^2/sr).

SAS cells = test: Western blot of EMT/CSC markers after in vitro induction of EMT; type: cell-based, human
Protocol: To induce the EMT of SAS cells, cells were seeded in 60 mm^2 dishes at the density of 1 × 10^6 cells/dish overnight and incubated with 1.25 and 10 μM Unc0642. After 24 h, cells were exposed under 2 Gy and 4 Gy of radiation by a RS2000 Series Biological Irradiator (Rad Source Technologies Inc, Buford, GA, USA) and replaced with fresh Unc0642 containing medium every 24 h. The expression of vimentin and E-cadherin were detected by western blotting.
Cultured cells were placed on ice, washed by ice-cold PBS and lysed using CytoBuster Protein Extraction Reagent (cat. 71,009, Bedford, MA, USA) containing Protease Inhibitor Cocktail Set I (cat. 539131, Millipore, Bedford, MA, USA). Cells were then scraped, collected in Eppendorf tubes and the sonicated for 30 min. The lysate was spun down at 12,000 g for 10 min at 4 °C. The protein content was measured using Bradford reagent (BIO-RAD, Hercules, CA, USA). The equal amounts of protein (40 μg) were separated in SDS-PAGE gels (30% Acrylamide/Bis Solution, 29:1, cat. 1610157, BIO-RAD, Hercules, CA, USA) and transferred to PVDF membranes (cat. NEF1002001PK, Perkin-Elmer life sciences, Boston, MA, USA). For immunoblotting, membranes were cut in terms of the molecular weight range prior to hybridization with primary antibody for vimentin (GTX100619, GeneTex, Irvine, CA, USA), nucleolin (GTX132778, GeneTex, Irvine, CA, USA), E-cadherin (GTX50757, GeneTex, Irvine, CA, USA) and b-actin (GTX109639, GeneTex, Irvine, CA, USA) overnight at 4 °C and then incubated with horseradish peroxidase HRP-conjugate goat anti-rabbit IgG (GeneTex, Irvine, CA, USA). Protein signals were visualized using a LumiFast Chemiluminescence Detection Kit (cat. JT96-K001S, T-Pro Biotechnology, Taiwan). Image capture was performed on an ImageQuant LAS4000 biomolecular image (GE healthcare life, Chicago, IL, USA). The intensities of protein bands were quantitated using ImageJ Gel Analysis program. Quantification of protein expression was performed by Image J. b-actin was used as loading control.

COc1cc2c(NC3CCN(C(C)C)CC3)nc(N3CCC(F)(F)CC3)nc2cc1OCCCN1CCCC1 [Unc0642]
Body weight versus vehicle-treated group [1]: no significant weight changes
Body weight versus DMSO control ([2]; Unc0642 2.5 mg/kg i.p. alone): no difference
Body weight ([2]; combined Unc0642 2.5 mg/kg i.p. and 2 Gy IR, until end point, p < 0.001): Drastic weight loss
Tumor growth (Fluc signal) (SAS-EGFP-Fluc tumor; Unc0642 2.5 mg/kg i.p. every two days for 3 times, alone, versus DMSO control, day 18): clear delay in tumor growth
Tumor growth (Fluc signal) (SAS-EGFP-Fluc tumor; Unc0642 2.5 mg/kg i.p. plus 2 Gy IR, every two days for 3 times): no significant reduction was observed in Unc0642 plus IR treated mice until Day 21, but drastically dropped down on day 24
CD44 expression in excised tumors (SAS-EGFP-Fluc tumor; Unc0642/IR alone or Unc0642 plus IR groups versus control, IF staining): higher CD44 expression
Vimentin expression (SAS cells; 1.25 μM Unc0642, western blot): increased
Nucleolin level (SAS cells; 1.25 μM Unc0642, western blot, p < 0.05): slightly increased
Vimentin expression (SAS cells; 10 μM Unc0642, western blot): almost unchanged
Vimentin expression versus control SAS cells (SAS cells; 2 Gy of IR and 1.25 μM Unc0642, western blot normalized to b-actin, p < 0.01): ~ twofold
E-cadherin protein expression (SAS cells; Unc0642 alone, western blot): diminished protein expression level
